According to US9682995B2, “Amino-substituted isothiazoles” (BAYER PHARMA AKTIENGESELLSCHAFT, priority 2013, dated 2017):

Target: 456 kinases (of these 395 non-mutant kinases) (Homo sapiens, UniProt Q86UX6)
Experiment: Kinase Profiling (KINOMEscan)
Assay type: binding
Details: YANK3; 10 μM

## CCc1ccccc1NC(=O)c1c(C)nsc1Nc1cnc2cc(F)ccc2n1 [Example 20, N-(2-Ethylphenyl)-5-[(6-fluoroquinoxalin-2-yl)amino]-3-methyl-1,2-thiazole-4-carboxamide]
  % Ctrl @ 10 μM: 67 % Ctrl
